Experiments:
green rice leafhoppers = experiment: Mortality of green rice leafhoppers on sprayed rice seedlings (Utility Example 1); conditions: green rice leafhopper, in vivo, 24 h
Description: (§1) To 30 parts of each of Compounds (1) to (38) were added 50 parts of xylene and 20 parts of Sorpol SM-200 (a surfactant, trademark of Toho Chemical Co., Ltd.). The mixture was stirred well and dissolved to obtain a 30% emulsifiable concentrate.
The emulsifiable concentrate prepared from Compounds (7), (11), (12), (15), (17), (21) and (22) [Each compound is a mixture of cis- and trans-isomer in a ratio of 50/50] in Formulation Example 5 were each diluted 300-fold with water. Then, each of the dilutions was sprayed over rice seedlings 25 days after sowing at the rate of 10 ml/pot. The pot was covered with a wire net and 15 green rice leafhoppers were released under the net. After 24 hours, the leafhoppers were examined for deaths. The mortality (%) was not less than 90% for each of Compounds (7), (11), (12), (15), (17), (21) and (22).

[1] = tested on: common cabbage worms (Pieris rapae crucivora); conditions: common cabbage worm, in vivo, 24 h
Description: as §1
The emulsifiable concentrate prepared from Compounds (7), (11) and (15) [Each compound is a mixture of cis- and trans-isomer in a ratio 20/80] in Formulation Example 5 were each diluted 1000-fold with water. Each of 15 common cabbage worms (Pieris rapae crucivora) per group were dipped into each of the dilutions for three seconds. Then, the worms were released on the leaves of the cabbage. After 24 hours, the worms were examined for deaths. The mortality (%) was not less than 90% for each of Compounds (7), (11) and (15).

[2] = Light stability test (Test Example 3); format: physicochemical; conditions: glass plate, uv light
Description: Into 2.0 ml of acetone were dissolved 80 mg of each test compound. A 5 μl portion of the solution was taken and spread on a glass plate (Micro Standard Cover Glass, 18 m/m No. 1, 200 pcs, Matsunami Glass Ind., Ltd.) and the acetone was evaporated. The specimen was exposed to ultraviolet light from a fluorescent lamp (Tokyo Shibaura Electric Co., Ltd., FL20BL, glow-type, 100 V, 24.5 W, wavelength=3600 A) which was fixed just above the specimen at a distance of 11 cm at a temperature of 31°-35° C. for a predetermined exposure time. The test liquid was washed away with 1.0 ml of methanol containing 0.04% of dioctyl phthalate as an internal reference and high-speed liquid chromatography was carried out on the washings to determine the residual amount of the test compound.

guppies = experiment: Fish toxicity test (Test Example 4); format: in vivo; conditions: concentration killing 50% of female guppies during 48 hours, 20° C.; [Mixture] = cis/trans 50/50
Description: The mixture was stirred well to prepare a test water. Ten female guppies from 3 to 4 months of age were released into the test water and maintained at 20° C. The concentration of the test compound at which 50% of the guppies were killed during the ensuring 48 hours was determined. [This concentration is referred to as TLm (medium tolerance limit, ppm)].
A rank corresponds to TLm of not less than 10 ppm.
B rank corresponds to TLm of 0.5-10 ppm.
C rank corresponds to TLm of not more than 0.5 ppm.

[3] = tested on: housefly (Musca domestica); experiment: Mortality test against houseflies by topical application (Test Example 1); format: in vivo; conditions: 24 h
Description: Each test compound was accurately weighed and a 1% solution and an 0.1% solution of the sample in acetone were prepared. A 1 μl portion of either of the above solutions was micropipetted onto the thoracic dorsal part of each female adult housefly (Musca domestica) under ether anaesthesia and the fly was released in a high-walled dish together with feed. The dish was covered with a metal-wire net and maintained at 25° C. After 24 hours, the test flies were inspected for deaths and the mortality (%) was calculated. Thirty test flies were used per concentration group.

CC1(C)C(CC(Cl)(Cl)Cl)C1C(=O)OC(C#N)c1cccc(Oc2ccccc2)c1 (stereo not drawn) [Compound (7), 3-Phenoxy-α-cyanobenzyl 2,2-dimethyl-3-(2,2,2-trichloroethyl)cyclopropanecarboxylate]
mortality (%) (green rice leafhoppers): not less than 90%
mortality (%) [1]: not less than 90%

CC1(C)C(CC(Cl)(Cl)Cl)C1C(=O)OC(C#N)c1cccc(Oc2ccc(Cl)cc2)c1 (stereo not drawn) [(15), 3-(4-Chlorophenoxy)-α-cyanobenzyl 2,2-dimethyl-3-(2,2,2-trichloroethyl)cyclopropanecarboxylate]
mortality (%) (green rice leafhoppers): not less than 90%
mortality (%) [1]: not less than 90%

C#CC(OC(=O)C1C(CC(Cl)(Cl)Cl)C1(C)C)c1cccc(Oc2ccccc2)c1 (stereo not drawn) [Compound (11), 3-Phenoxy-α-ethynylbenzyl 2,2-dimethyl-3-(2,2,2-trichloroethyl)cyclopropanecarboxylate]
mortality (%) (green rice leafhoppers): not less than 90%
mortality (%) [1]: not less than 90%

C#CC(OC(=O)[C@@H]1[C@H](CC(C)(Cl)Cl)C1(C)C)c1cccc(Oc2ccccc2)c1 (relative stereo) [(13) [Cis-isomer], 3-Phenoxy-α-ethynylbenzyl 2,2-dimethyl-3-(2,2-dichloropropyl)cyclopropanecarboxylate]
remaining at 3.5 h [2]: 100%
remaining at 72 h [2]: 88%
remaining at 120 h [2]: 73%
TLm (medium tolerance limit) (guppies): A (A rank corresponds to TLm of not less than 10 ppm.)

C#CC(OC(=O)[C@@H]1[C@@H](CC(Cl)(Cl)Cl)C1(C)C)c1cccc(Oc2ccccc2)c1 (relative stereo) [(11) [Trans-isomer], 3-Phenoxy-α-ethynylbenzyl 2,2-dimethyl-3-(2,2,2-trichloroethyl)cyclopropanecarboxylate]
mortality at 1 µg/fly [3]: 100%
mortality at 10 µg/fly [3]: 100%
TLm (medium tolerance limit) (guppies): A (A rank corresponds to TLm of not less than 10 ppm.)
